{
  "source": "patent US12012584B2",
  "about": "(priority 2017, dated 2024)",
  "key": {"[1]": {"details": "after 8 hours incubation at 4° C., FIG. 22"}},
  "data": [
    {"compound": "CN(CCCC(=O)c1cccnc1)N=O", "note": "[NNK, 4-(methylnitrosamino)-1-(3-pyridyl)-1-butanone]", "values": [
      {"measurement": "trapping of the molecule by PEEK", "value": "not trapped by the material"}
    ]},
    {"compound": "CN1CCCC1c1cccnc1", "note": "(stereo not shown) [nicotine]", "values": [
      {"measurement": "amount of nicotine remaining in a PEEK plate", "setting": "8 h", "value": "about 100%"},
      {"measurement": "trapping of the molecule by PEEK", "value": "not trapped by the material"},
      {"measurement": "amount of nicotine remaining in a PDMS plate", "setting": "[1]", "value": "about 35%"}
    ]}
  ]
}
